Activity calls are given as the source filed them.
Experiments:
HEK293 [1] = test: inhibitors of LMP1-driven NF-kB reporter, dose response, cell-based, HEK293, luciferase, cherry-pick (AID 588343); format: functional; conditions: Homo sapiens
[2] = target: T1, Endoribonuclease toxin MazF (Escherichia coli K-12, UniProt P0AE70); test: MazF toxin RNase activators, dose response, biochemical, fluorescence, single-stranded RNA substrate, uHTS hits (AID 588481); format: functional
T1 sequence (P0AE70 whole entry): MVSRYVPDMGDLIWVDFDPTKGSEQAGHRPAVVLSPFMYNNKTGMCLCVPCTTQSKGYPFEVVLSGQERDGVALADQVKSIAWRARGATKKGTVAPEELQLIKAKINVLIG

[3] = target: T1, Endoribonuclease toxin MazF; test: fluorescent RNA oligo signal without MazF, dose response, counter-screen for MazEF activator project, biochemical, fluorescence, single-stranded RNase substrate (AID 588502); format: functional
[4] = THP-1 cell cytotoxicity, dose response, cytotoxicity control for non-replicating M. tuberculosis project (AID 489025); format: functional
[5] = Vero E6 cell cytotoxicity, dose response, cytotoxicity control for non-replicating M. tuberculosis project, secondary assay (AID 492998); format: functional, VeroE6; conditions: Vero C1008
cells = format: functional
[6] = target: T2, Heat shock factor protein 1 (Mus musculus, UniProt P38532); test: inhibition of MG132-induced HSE-luciferase signal, confirmation, cell-based, NIH3T3, luminescence, dose retest (AID 2382); format: functional;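 further: NIH3T3 fibroblasts with HSF1-driven luciferase reporter stressed by proteasome inhibitor MG132; luminescence from HSF1-driven luciferase expression after 8 hours of MG132 stress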
T2 sequence (P38532 whole entry): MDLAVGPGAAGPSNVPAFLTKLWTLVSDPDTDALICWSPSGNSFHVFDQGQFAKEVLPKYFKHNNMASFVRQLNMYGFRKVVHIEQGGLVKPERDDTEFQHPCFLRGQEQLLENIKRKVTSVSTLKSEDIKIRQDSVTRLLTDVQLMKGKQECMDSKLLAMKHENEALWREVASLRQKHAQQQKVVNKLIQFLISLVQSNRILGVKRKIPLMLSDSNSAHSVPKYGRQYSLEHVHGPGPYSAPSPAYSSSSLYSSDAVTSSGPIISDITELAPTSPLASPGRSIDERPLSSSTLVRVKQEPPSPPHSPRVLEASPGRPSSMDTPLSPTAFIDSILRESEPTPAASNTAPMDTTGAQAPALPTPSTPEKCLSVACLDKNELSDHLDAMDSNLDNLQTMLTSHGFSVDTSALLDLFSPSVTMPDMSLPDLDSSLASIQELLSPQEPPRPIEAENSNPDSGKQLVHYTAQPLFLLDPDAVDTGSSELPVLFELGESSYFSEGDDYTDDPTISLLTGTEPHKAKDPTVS

Trypsin = Trypsin (Sus scrofa, UniProt P00761); test: porcine trypsin inhibitors, dose response, selectivity assay for Rce1 protease inhibitor project, biochemical, quenched peptide fluorescence, cherry-pick (AID 488789)
Sequence of Trypsin (P00761 whole entry): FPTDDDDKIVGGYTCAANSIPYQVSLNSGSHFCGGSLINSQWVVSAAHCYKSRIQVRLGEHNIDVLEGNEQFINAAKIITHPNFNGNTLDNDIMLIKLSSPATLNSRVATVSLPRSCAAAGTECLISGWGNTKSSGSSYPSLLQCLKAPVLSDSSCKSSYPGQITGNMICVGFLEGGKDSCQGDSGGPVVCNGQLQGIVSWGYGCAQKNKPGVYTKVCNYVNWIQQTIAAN

CAAX prenyl protease 2 = target: T3, CAAX prenyl protease 2 (Homo sapiens, UniProt Q9Y256); test: human Rce1 protease inhibitors, dose response, biochemical, yeast membranes, quenched-peptide fluorescence, cherry-pick (AID 588849)
T3 sequence (Q9Y256 whole entry): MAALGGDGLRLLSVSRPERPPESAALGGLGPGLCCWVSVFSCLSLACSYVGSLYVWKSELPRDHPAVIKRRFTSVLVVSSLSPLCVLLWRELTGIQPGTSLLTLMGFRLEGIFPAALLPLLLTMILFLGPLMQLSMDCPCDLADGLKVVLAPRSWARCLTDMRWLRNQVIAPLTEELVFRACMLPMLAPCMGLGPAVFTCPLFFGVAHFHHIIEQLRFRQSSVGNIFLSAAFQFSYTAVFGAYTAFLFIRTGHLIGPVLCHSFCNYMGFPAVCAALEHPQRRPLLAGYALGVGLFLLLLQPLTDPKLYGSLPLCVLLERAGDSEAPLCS

HEK293 [7] = test: NOD1 signaling inhibitors, primary screen, cell-based, luminescence, uHTS (AID 1578); format: functional; conditions: Homo sapiens
HEK293 [8] = test: cells; format: functional, cell-based; conditions: Homo sapiens
HEK293 [9] = test: cells; format: functional, cell-based; conditions: Homo sapiens; remark: listed apart in the source
HEK293 [10] = test: NOD2 signaling inhibitors in MDP-stimulated cells, cell-based, uHTS, luminescence (AID 2001); format: functional; conditions: Homo sapiens
[11] = inhibitors of firefly luciferase expression or activity, dose response, H4 neuroglioma cells, luminescence (AID 1990); format: functional, cell-based
[12] = target: T4, RNA-binding protein pos-1 (Caenorhabditis elegans, UniProt G5EF15); test: inhibitors of POS-1/mex-3 RNA binding, dose response, biochemical, fluorescence polarization (AID 1964);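 further: purified POS-1 fused to maltose binding protein made in E. coli; potency of compounds blocking POS-1 binding to fluorescent RNA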
T4 sequence (G5EF15 whole entry): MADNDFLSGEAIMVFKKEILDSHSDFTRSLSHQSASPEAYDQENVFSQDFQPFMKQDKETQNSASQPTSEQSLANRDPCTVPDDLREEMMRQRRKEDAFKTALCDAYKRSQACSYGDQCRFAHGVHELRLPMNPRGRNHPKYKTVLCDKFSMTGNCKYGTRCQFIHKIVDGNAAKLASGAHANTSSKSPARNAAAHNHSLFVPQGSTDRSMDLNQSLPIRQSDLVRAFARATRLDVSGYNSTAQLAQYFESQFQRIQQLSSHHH

[13] = system: Streptococcus sp. 'group A'; test: growth inhibition of control SK(-) GAS strain, dose response, counter-screen for streptokinase expression inhibitor project, luminescence, kanamycin, BacTiterGlo, confirmation (AID 1900); format: functional, organism-based
[14] = Luminescence Cell-Based Dose Response HTS to Identify Inhibitors of 5'UTR Stem-Loop Driven Prion Protein mRNA Translation in H4 Neuroglioblastoma Cells. [Related pubchem assays: 1827 (Project Summary), 1813 (Primary HTS)]; format: functional
[15] = inhibitors of SNCA 5'UTR-driven reporter translation, confirmation, H4 neuroglioma cells, luminescence (AID 1988); format: functional, cell-based
Streptococcus = test: Group A Streptococcus viability loss, dose response, counter-screen for streptokinase expression inhibitor project, luminescence, BacTiterGlo (AID 1915); format: functional, organism-based;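 further: potency for reduction of bacterial viability or growth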

**Q.** With `COc1ccc2nc(-c3ccc(C)cc3)cc(O)c2c1` as the compound, how does the AC50 (HEK293 [1]) read?
**A.** Its AC50 is 2.68 µM (active).

**Q.** With `Nc1c(C(=O)Nc2ccccc2)sc2nc3c(c(-c4ccco4)c12)CCC3` as the compound, how does the EC50 [2] read?
**A.** Its EC50 is 11.3 µM (active).

**Q.** What about the EC50 [3] of the same compound?
**A.** The EC50 was > 99 µM (inactive).

**Q.** Which results are given for `Cc1cc(Cl)ccc1OCC(=O)NNC(=O)c1cnccn1`?
**A.** CC50 [4]: > 40 µM (active); CC50 [5]: 13.7 µM (active); IC50 (cells): 5.5 µM (active)

**Q.** Which results are given for `COc1ccc(C)c2sc(NC(=O)C3=COCCO3)nc12`?
**A.** EC50 [6]: > 195 µM (not active); AC50 (Trypsin): 18.8 µM (active); AC50 (CAAX prenyl protease 2): 13.4 µM (active)

**Q.** For `O=C(c1ccc(Cl)cc1)C1CCCN(Cc2ccc3ncccc3c2)C1` (stereo not given), which EC50 (HEK293 [7]) is on record?
**A.** Its EC50 is 4.42 µM (active).

**Q.** What about the IC50 (HEK293 [8]) of the same compound?
**A.** The IC50 was 3.92 µM (active).

**Q.** And the IC50 (HEK293 [9])?
**A.** Its IC50 is 15.5 µM (active).

**Q.** And the IC50 (HEK293 [10])?
**A.** Its IC50 is 5.78 µM (active).

**Q.** For `Cc1ccc2c(n1)sc1c(-c3ccccc3)c(C#N)c(N)nc12`, which EC50 [2] is on record?
**A.** Its EC50 is > 99 µM (inactive).

**Q.** What about the EC50 [3] of the same compound?
**A.** Its EC50 is > 99 µM (inactive).

**Q.** Which results are given for `Cc1nn(-c2ccccc2)c2nc(N)c(C(N)=O)cc12`?
**A.** AC50 (Trypsin): 37.9 µM (active); AC50 (CAAX prenyl protease 2): 21.3 µM (active)

**Q.** Which EC50 [11] does the source give for `CC/C(=C\C=C\[C@@H]1C=C[C@@H]2CCC[C@H]2[C@@H]1C(=O)c1ccc[nH]1)[C@@H]1O[C@@H]([C@@H](C)C(=O)O)CC[C@@H]1C` here?
**A.** The EC50 was 14.2 µM (active).

**Q.** And the EC50 [12]?
**A.** Its EC50 is > 300 µM (inconclusive).

**Q.** What about the EC50 [13] of the same compound?
**A.** Its EC50 is 0.202 µM (active).

**Q.** What about the EC50 [14] of the same compound?
**A.** The EC50 was 14.4 µM (active).

**Q.** And the EC50 [15]?
**A.** The EC50 was > 120 µM (not active).

**Q.** What about the EC50 (Streptococcus) of the same compound?
**A.** The EC50 was 0.147 µM (active).

**Q.** And the CC50 [4]?
**A.** Its CC50 is 12.4 µM (active).

**Q.** What about the CC50 [5] of the same compound?
**A.** Its CC50 is 16.5 µM (active).

Source: ChEMBL document CHEMBL1201862, “PubChem BioAssay data set” (2004)
